The values below come from ChEMBL document CHEMBL1136204, “Thymidine and thymidine-5'-O-monophosphate analogues as inhibitors of Mycobacterium tuberculosis thymidylate kinase” (Bioorg Med Chem Lett, 2003).

In assay [1] the target is T1, Thymidylate kinase (Mycobacterium tuberculosis) (UniProt P9WKE1).
T1 sequence (whole entry): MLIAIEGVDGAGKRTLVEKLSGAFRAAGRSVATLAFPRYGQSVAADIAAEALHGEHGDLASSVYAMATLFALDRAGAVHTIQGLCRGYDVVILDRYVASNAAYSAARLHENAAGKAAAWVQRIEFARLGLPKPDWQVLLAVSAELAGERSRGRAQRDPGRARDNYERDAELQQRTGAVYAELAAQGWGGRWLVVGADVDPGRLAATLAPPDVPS
Kind of assay: (§1) Kinetic parameter Vm of thymidine monophosphate kinase (TMPKmt) in Mycobacterium tuberculosis was determined.

The target in assay [2] is T1, Thymidylate kinase (Mycobacterium tuberculosis). Described as §1. It is filed as functional.

For `Cc1cn([C@H]2C[C@H](O)[C@@H](COP(=O)(O)O)O2)c(=O)[nH]c1=O`, in assay [1], the Vm turned out to be 10.6 µM/min/mg.

In turn, `O=c1[nH]c(=O)n([C@H]2C[C@H](O)[C@@H](COP(=O)(O)O)O2)cc1Br` yielded a Vm in assay [2] of 9.8 µM/min/mg.

The compound `O=c1[nH]c(=O)n([C@H]2C[C@H](O)[C@@H](COP(=O)(O)O)O2)cc1I` yielded a Vm in assay [2] of 7.5 µM/min/mg.

The compound `O=c1[nH]c(=O)n([C@H]2C[C@H](O)[C@@H](COP(=O)(O)O)O2)cc1F` returned a Vm in assay [2] of 4.7 µM/min/mg.

On to `O=c1ccn([C@H]2C[C@H](O)[C@@H](COP(=O)(O)O)O2)c(=O)[nH]1`, for which the Vm in assay [2] came to 3.5 µM/min/mg.
